Measured values as given in patent publication US9511072B2, “Methods of modulating cell proliferation and cyst formation in polycystic kidney and liver diseases” (The Medical College of Wisconsin, Inc., priority 2006, dated 2016).

How the values were obtained:
20-HETE = settings: cited from earlier work
REC11 cells = assay: BrdU proliferation of EGF-stimulated REC11 cystic renal epithelial cells; format: cell-based, mouse; settings: 10 μM, 36 hrs, after EGF 25 ng/ml for 6 hours
Text: REC11 cystic cell line is a conditionally immortalized epithelial collecting tubule (CT) cell line derived from the cystic kidneys of the BPK mouse model of human ARPKD crossed to the ImmortoMouse. The BPK mouse as a human ARPKD model has been described in Nauta J. et al., Pediatr Nephrol 1993, 7:163-172 and Nauta J. et al., Pediatr Res 1995, 37:755-763. The procedures for immortalization, cell isolation, cell culture and the complete phenotypic characterization of this cell line have been described in detail in Sweeney W. E. et al., Am J Physiol C Physiol 2001, 281:C1695-705. All analysis and experiments were performed on REC11 cells grown for a minimum 6 days under non-permissive conditions to eliminate residual Large T.
Proliferation of REC11 cells was stimulated by exposure of the cells for 6 hours with EGF (25 ng/ml). Next, the cells were treated with vehicle, HET0016 (10 μM, a 20-HETE synthesis inhibitor), HET0016 (20 μM), DDMS (10 μM, a 20-HETE synthesis inhibitor), or WIT-002 (10 μM, a 20-HETE antagonist) for 36 hrs, pulsed with BrdU, and then stained for BrdU labeled cells to determine the degree of cell proliferation. […] Cells treated with a higher dose of HET0016 (20 μM) (column C) reduced proliferation by 75% (p<0.020). Cells treated with another chemically dissimilar inhibitor of the synthesis of 20-HETE, DDMS (10 μM) (column D), reduced proliferation by 47% (p<0.05). Cells treated with WIT-002 (10 μM) (column E) reduced proliferation by 25%.

cystic BPK cells = assay: BrdU incorporation in cystic BPK cells; format: cell-based, mouse; settings: 10 μM, 36 hours; vehicle 118
Protocol: To determine the level of proliferation in the cystic BPK cells, chemically dissimilar inhibitors of cytochrome P450 4A (CYP4A) and 4F (CYP4F) inhibitors, specifically HET-0016 (10 and 20 μM) and DDMS (10 μM), were incubated for 36 hours with the BPK cells. Three hours prior to the harvesting of the cells, 5-bromo-2′-deoxyuridine (BrdU) at a concentration of 30 μM was added to determine the level of cell cycle inhibition. The cells were subsequently methanol fixed and BrdU-positive cells were identified by immunohistology with biotinylated monoclonal anti-BrdU antibody (Zymed, South San Francisco, Calif.). Data were expressed as the percentage of BrdU-labeled cells per 500 counted cells.

Compound	20-HETE levels in vivo (20-HETE)	reduction of proliferation (BrdU labeled cells) vs vehicle (REC11 cells)	BrdU-positive cells per 500 total cells counted (cystic BPK cells)
Nn1nnc2ccccc21 [Compound 1-ABT, 1-aminobenzotriazole]	reduce 20-HETE levels in vivo		
C#CCCCCCCCCCCCCCCCC(=O)O [Compound 17-ODYA, 17-Octadecynoic acid]	reduce 20-HETE levels in vivo		
CS(=O)(=O)NC(=O)CCCCCCCCCC=C(Br)Br [DDMS, dibromododecenyl methylsulfonimide]		47%	63 BrdU(+) cells
O=C(O)CCCC/C=C\CCCCCCC/C=C\CCCCO [WIT-002, 20-hydroxyeicosa-6(Z),15(Z)-dienoic acid]		25%	
